According to patent publication US11492335B2, “Aryl or heteroaryl triazolone derivatives or salts thereof, or pharmaceutical compositions comprising the same” (YUHAN CORPORATION, priority 2018, dated 2022):
Where a name gives a salt, the structure may show the parent alone. Read-outs that look alike come from different tables or passages of the source.

Experiments:
Type in all cases: biochemical
[1] = target: T1, recombinant human MAO-B (monoamine oxidase-B) (Homo sapiens, UniProt P27338); experiment: Activity on recombinant human MAO-B, Amplex Red method, 1 mM benzylamine substrate; conditions: read-out: Inhibitory Activity (IC50, nM) MAO-B
T1 construct: purchased Sigma-Aldrich
T1 sequence (P27338 1-520): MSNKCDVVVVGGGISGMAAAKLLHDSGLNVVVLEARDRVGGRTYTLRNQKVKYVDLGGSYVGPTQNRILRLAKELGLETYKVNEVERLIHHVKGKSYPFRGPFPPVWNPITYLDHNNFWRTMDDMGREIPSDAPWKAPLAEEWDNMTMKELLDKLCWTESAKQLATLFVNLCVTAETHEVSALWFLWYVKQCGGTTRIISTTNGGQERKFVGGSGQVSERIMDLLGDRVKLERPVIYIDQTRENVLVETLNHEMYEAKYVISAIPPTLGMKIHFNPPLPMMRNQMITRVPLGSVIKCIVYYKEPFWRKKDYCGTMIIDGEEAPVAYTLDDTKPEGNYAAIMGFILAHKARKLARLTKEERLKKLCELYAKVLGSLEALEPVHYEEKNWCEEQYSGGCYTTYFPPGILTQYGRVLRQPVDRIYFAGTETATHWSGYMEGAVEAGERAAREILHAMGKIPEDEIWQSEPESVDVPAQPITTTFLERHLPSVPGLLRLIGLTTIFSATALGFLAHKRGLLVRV
How it was run: (§1)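 Enzyme in pH 7.4 phosphate buffer; 30 min, 37° C with compound (DMSO <1%); start with 200 uM Amplex Red + 1 U/mL HRP + tyramine 0.5 mM (MAO-A) or benzylamine 1 mM (MAO-B); kinetic read ex 544/em 590, 1-2 h; % rate decrease vs DMSO control → IC50, 4-parameter fit.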

recombinant human VAP-1 = target: T2, recombinant human VAP-1 (Homo sapiens, UniProt Q16853); experiment: Activity on recombinant human VAP-1, Amplex Red HRP-coupled hydrogen peroxide assay, benzylamine substrate; conditions: recombinant human VAP-1, benzylamine substrate, read-out: Inhibitory Activity (IC50, nM) human VAP-1
T2 construct: purchased R&D systems
T2 sequence (Q16853 1-763): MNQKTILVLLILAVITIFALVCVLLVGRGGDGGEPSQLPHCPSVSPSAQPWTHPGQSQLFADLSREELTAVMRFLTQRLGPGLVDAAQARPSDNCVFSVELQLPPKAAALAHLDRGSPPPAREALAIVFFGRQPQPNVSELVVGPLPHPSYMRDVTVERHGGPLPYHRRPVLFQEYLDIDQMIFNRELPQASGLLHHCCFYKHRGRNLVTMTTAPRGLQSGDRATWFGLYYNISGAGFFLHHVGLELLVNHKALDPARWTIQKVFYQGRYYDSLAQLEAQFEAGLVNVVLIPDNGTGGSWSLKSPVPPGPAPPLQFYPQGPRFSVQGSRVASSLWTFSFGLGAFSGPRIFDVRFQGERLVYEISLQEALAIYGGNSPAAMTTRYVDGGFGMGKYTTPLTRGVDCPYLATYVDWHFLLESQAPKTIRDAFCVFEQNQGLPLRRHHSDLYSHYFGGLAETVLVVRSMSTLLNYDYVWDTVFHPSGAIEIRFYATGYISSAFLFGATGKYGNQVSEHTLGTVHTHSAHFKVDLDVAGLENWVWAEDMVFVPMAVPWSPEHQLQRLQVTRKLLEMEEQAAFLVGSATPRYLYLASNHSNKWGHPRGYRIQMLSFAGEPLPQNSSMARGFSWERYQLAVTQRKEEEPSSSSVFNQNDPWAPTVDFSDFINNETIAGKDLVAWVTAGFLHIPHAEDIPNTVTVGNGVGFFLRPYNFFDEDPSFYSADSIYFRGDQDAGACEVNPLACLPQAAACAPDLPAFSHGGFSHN
How it was run: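 Enzyme in 50 mM sodium phosphate (pH 7.4) is exposed to test compound for 30 min at 37 °C. Benzylamine (1 mM) with HRP and Amplex Red then starts the reaction, and the fluorescence rate, relative to a DMSO-only control, gives IC50.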

[2] = target: T3, recombinant human MAO-A (monoamine oxidase-A) (Homo sapiens, UniProt P21397); experiment: Activity on recombinant human MAO-A, Amplex Red method, 0.5 mM tyramine substrate; conditions: read-out: Inhibitory Activity (IC50, nM) MAO-A
T3 construct: purchased Sigma-Aldrich
T3 sequence (P21397 1-527): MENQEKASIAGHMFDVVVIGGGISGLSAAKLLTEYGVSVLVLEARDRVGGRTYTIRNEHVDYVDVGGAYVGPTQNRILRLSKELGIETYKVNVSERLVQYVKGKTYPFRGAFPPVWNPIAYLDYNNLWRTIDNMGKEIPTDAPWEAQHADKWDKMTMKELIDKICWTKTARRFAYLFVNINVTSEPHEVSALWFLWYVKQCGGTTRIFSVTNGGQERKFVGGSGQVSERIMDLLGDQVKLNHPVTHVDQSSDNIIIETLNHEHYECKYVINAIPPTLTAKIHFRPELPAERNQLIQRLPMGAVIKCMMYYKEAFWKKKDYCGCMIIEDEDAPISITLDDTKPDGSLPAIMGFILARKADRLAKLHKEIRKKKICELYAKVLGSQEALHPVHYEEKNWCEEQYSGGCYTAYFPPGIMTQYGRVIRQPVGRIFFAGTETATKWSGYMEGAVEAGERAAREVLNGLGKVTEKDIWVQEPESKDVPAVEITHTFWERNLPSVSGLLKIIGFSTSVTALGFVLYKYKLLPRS
How it was run: as §1

[3] = target: T4, recombinant human DAO (diamine oxidase) (Homo sapiens, UniProt P19801); experiment: Activity on recombinant human DAO, Amplex Red method, 1 mM putrescine substrate; conditions: recombinant human DAO, read-out: Inhibitory Activity (IC50, nM) DAO
T4 construct: purchased R&D systems
T4 sequence (P19801 20-751): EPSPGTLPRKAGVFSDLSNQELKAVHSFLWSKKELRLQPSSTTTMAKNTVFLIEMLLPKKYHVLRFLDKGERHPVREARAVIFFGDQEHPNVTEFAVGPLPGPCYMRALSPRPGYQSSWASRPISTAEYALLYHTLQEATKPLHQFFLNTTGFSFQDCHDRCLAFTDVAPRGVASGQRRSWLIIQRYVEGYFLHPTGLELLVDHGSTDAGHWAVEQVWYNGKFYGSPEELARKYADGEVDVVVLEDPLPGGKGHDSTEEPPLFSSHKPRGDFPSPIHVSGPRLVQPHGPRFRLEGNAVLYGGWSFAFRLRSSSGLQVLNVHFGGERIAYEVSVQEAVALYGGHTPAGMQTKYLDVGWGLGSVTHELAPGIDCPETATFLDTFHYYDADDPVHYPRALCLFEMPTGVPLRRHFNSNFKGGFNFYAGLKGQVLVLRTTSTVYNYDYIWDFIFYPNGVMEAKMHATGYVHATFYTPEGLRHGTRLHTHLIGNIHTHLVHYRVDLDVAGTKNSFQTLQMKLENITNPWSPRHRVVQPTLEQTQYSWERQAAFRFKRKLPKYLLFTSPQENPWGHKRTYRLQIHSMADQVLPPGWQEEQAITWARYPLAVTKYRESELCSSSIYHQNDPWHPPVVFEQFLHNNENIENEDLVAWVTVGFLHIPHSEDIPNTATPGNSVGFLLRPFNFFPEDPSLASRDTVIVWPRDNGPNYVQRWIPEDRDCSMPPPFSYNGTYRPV
How it was run: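 Inhibition of recombinant human DAO (diamine oxidase, R&D systems) was assessed with the Amplex Red Hydrogen Peroxide Assay Kit. Hydrogen peroxide produced from 1 mM putrescine was detected through an HRP-coupled reaction that converts Amplex Red into fluorescent resorufin, read at 544 nm excitation and 590 nm emission. IC50 values came from four-parameter logistic fits in GraphPad Prism.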

[4] = 1 mM putrescine, * = between 10 and 100 nM, ** = between 300 and 1000 nM

| SMILES | IC50 ([1]; 1 mM benzylamine substrate) | IC50 (recombinant human VAP-1) | IC50 ([2]; 0.5 mM tyramine substrate) | IC50 ([3]; 1 mM putrescine substrate) | IC50 ([1]; 1 mM benzylamine) | IC50 (recombinant human VAP-1; 30 min preincubation at 37° C.) | IC50 ([2]; 0.5 mM tyramine) | IC50 [3, 4] |
| --- | --- | --- | --- | --- | --- | --- | --- | --- |
| COc1ccc(C#Cc2cccc(-n3cnn(C/C(=C/F)CN)c3=O)n2)cn1 [Example 247, 2-[(2E)-2-(aminomethyl)-3-fluoroprop-2-en-1-yl]-4-{6-[(6-methoxypyridin-3-yl)ethynyl]pyridin-2-yl}-2,4-dihydro-3H-1,2,4-triazol-3-one] | 4300 nM | 0.3 nM | > 100000 nM | 14 nM | – | – | – | – |
| Cc1cc(-c2ccc(-c3noc(C(C)C)n3)cc2)cnc1-n1cnn(C/C(=C/F)CN)c1=O [Example 142, 2-[(2E)-2-(aminomethyl)-3-fluoroprop-2-en-1-yl]-4-(3-methyl-5-{4-[5-(propan-2-yl)-1,2,4-oxadiazol-3-yl]phenyl}pyridin-2-yl)-2,4-dihydro-3H-1,2,4-triazol-3-one hydrochloride] | – | – | – | – | 4720 nM | 0.63 nM | > 100000 nM | 57 nM |
| CS(=O)(=O)c1ccc(-c2cnc(-n3cnn(C/C(=C/F)CN)c3=O)cn2)cc1 [Example 217, 2-[(2E)-2-(aminomethyl)-3-fluoroprop-2-en-1-yl]-4-{5-[4-(methylsulfonyl)phenyl]pyrazin-2-yl}-2,4-dihydro-3H-1,2,4-triazol-3-one] | 110 nM | 2.2 nM | > 100000 nM | < 100 nM | – | – | – | – |
| NC/C(=C\F)Cn1ncn(-c2ncc(-c3cccc(-c4nnc[nH]4)c3)s2)c1=O [Example 228, 2-[(2E)-2-(aminomethyl)-3-fluoroprop-2-en-1-yl]-4-{5-[3-(4H-1,2,4-triazol-3-yl)phenyl]-1,3-thiazol-2-yl}-2,4-dihydro-3H-1,2,4-triazol-3-one] | 9.2 nM | 0.38 nM | > 100000 nM | < 100 nM | – | – | – | – |
| CC(=O)Nc1cc(-c2cnc(-n3cnn(C/C(=C/F)CN)c3=O)c(C)c2)ccn1 [Example 147, (E)-N-(6-(1-(2-(aminomethyl)-3-fluoroallyl)-5-oxo-1,5-dihydro-4H-1,2,4-triazol-4-yl)-5-methyl-[3,4′-bipyridin]-2′-yl)acetamide hydrochloride] | – | – | – | – | > 10000 nM | 0.55 nM | > 10000 nM | 450 nM |

More lines, now with the values ahead:

| IC50 ([1]; 1 mM benzylamine substrate) | IC50 (recombinant human VAP-1) | IC50 ([2]; 0.5 mM tyramine substrate) | IC50 ([3]; 1 mM putrescine substrate) | IC50 ([1]; 1 mM benzylamine) | IC50 (recombinant human VAP-1; 30 min preincubation at 37° C.) | IC50 ([2]; 0.5 mM tyramine) | IC50 [3, 4] | SMILES |
| --- | --- | --- | --- | --- | --- | --- | --- | --- |
| 17 nM | 0.63 nM | > 100000 nM | < 10 nM | – | – | – | – | NC/C(=C\F)Cn1ncn(-c2ccnc(-c3ccc4c(c3)OCO4)c2)c1=O [Example 209, 2-[(2E)-2-(aminomethyl)-3-fluoroprop-2-en-1-yl]-4-[2-(1,3-benzodioxol-5-yl)pyridin-4-yl]-2,4-dihydro-3H-1,2,4-triazol-3-one hydrochloride] |
| 164 nM | 0.61 nM | > 100000 nM | 0.24 nM | – | – | – | – | NC/C(=C\F)Cn1ncn(-c2ncc(-c3ccc(-c4nnc[nH]4)cc3)s2)c1=O [Example 227, 2-[(2E)-2-(aminomethyl)-3-fluoroprop-2-en-1-yl]-4-{5-[4-(4H-1,2,4-triazol-3-yl)phenyl]-1,3-thiazol-2-yl}-2,4-dihydro-3H-1,2,4-triazol-3-one] |
| 1160 nM | 2.5 nM | > 100000 nM | 38 nM | – | – | – | – | NC/C(=C\F)Cn1ncn(-c2cccc(-c3ccc4c(c3)OCO4)n2)c1=O [Example 193, 2-[(2E)-2-(aminomethyl)-3-fluoroprop-2-en-1-yl]-4-[6-(1,3-benzodioxol-5-yl)pyridin-2-yl]-2,4-dihydro-3H-1,2,4-triazol-3-one] |
| > 10000 nM | 0.53 nM | > 100000 nM | < 30 nM | – | – | – | – | NC/C(=C\F)Cn1ncn(-c2cccc(-c3ccc(N4CCOCC4)nc3)n2)c1=O [Example 189, 2-[(2E)-2-(aminomethyl)-3-fluoroprop-2-en-1-yl]-4-[6′-(morpholin-4-yl)-2,3′-bipyridin-6-yl]-2,4-dihydro-3H-1,2,4-triazol-3-one] |
| 1100 nM | 0.2 nM | > 100000 nM | 1.6 nM | – | – | – | – | NC/C(=C\F)Cn1ncn(-c2cccc(-c3ccc4c(c3)NC(=O)OC4)n2)c1=O [Example 200, 7-(6-{1-[(2E)-2-(aminomethyl)-3-fluoroprop-2-en-1-yl]-5-oxo-1,5-dihydro-4H-1,2,4-triazol-4-yl}pyridin-2-yl)-1,4-dihydro-2H-3,1-benzoxazin-2-one hydrochloride] |
| – | – | – | – | 58 nM | 1.4 nM | > 100000 nM | 21 nM | COc1cc(-n2cnn(C/C(=C/F)CN)c2=O)ccc1Br [Example 18, 2-[(2E)-2-(aminomethyl)-3-fluoroprop-2-en-1-yl]-4-(4-bromo-3-methoxyphenyl)-2,4-dihydro-3H-1,2,4-triazol-3-one hydrochloride] |
